One test deals with PI 3-kinase. The settings on record: cited from earlier work.
In the next test the test system is GSK-3β. As to the kind of experiment: Western blot of serine-9-phosphorylated GSK-3β (FIG. 5). Type of test: cell-based, rat. The settings on record: compound alone, 2 hours; CRF 10 nM, LY 294002 75 μM, FSK 30 μM. From the text: It was thought that CRF receptor agonists might interact with the PI 3-kinase signalling pathway and exert their neuroprotective effect by phosphorylating and inhibiting the protein GSK-3β,which is pro-apoptotic (M. Pap and G. M. Cooper, J. Biol. Chem., 273(32), 19929-19932, 1998; and M. Hetman et al. J. Neurosci., 1st Apr. 2000, 20(7), 2567-2574; discussed hereinabove). In order to confirm this, the level of GSK-3β phosphorylated at serine-9 (e.g. see D. A. E. Cross, Nature, 378, 785-789, 1995) in control cultures of cerebellar granule neurones was measured using Western blots, and compared to the level of phospho-GSK-3β in the presence of CRF as a model CRF receptor agonist and/or in the presence of the PI 3-kinase inhibitor LY 294002. In order to determine whether elevation of cAMP was involved in any effect, the level of phospho-GSK-3β in cultures in the presence of the known cAMP-elevating agent forskolin (FSK, obtainable e.g. from Calbiochem.) with or without LY 294002 present was also measured. The forskolin acts as a benchmark for cAMP-related effects.
The method used was as follows. […]
Phosphorylation of GSK-3β was detected using an antibody to serine-9-phosphorylated GSK-3β (anti-phospho-GSK-3β (Ser9)) available as catalogue no. […]

The subject of test [1] is cerebellar granule neurones. The format is cell-based, rat. The settings on record: 48 h, MTT, sham-treated = 100%. The procedure: Cerebellar granule neurones were used in the examples to test neuroprotection by CRF receptor agonists. Cerebellar granule neurones (CGNs) undergo apoptosis during the first few weeks of postnatal life, and in culture require mildly depolarising concentrations of KCl (25 mM) for their survival and maturation (S. R: D'Mello et al., Proc. Natl. Acad. Sci. USA 90, 10989-10993, 1993). The growth signal provided by KCl depends upon activation of the phosphatidylinositol 3-kinase (PI 3-kinase) pathway, and pharmacological inhibition of PI 3-kinase in differentiated granule neurones leads to apoptotic death in the CGNs (T. M. Miller et al., J. Biol. Chem., 272, 9847-9853, 1997). Thus, cultured CGNs represent a suitable model to study mechanisms of programmed cell death, and to identify putative neuroprotective signalling pathways.
Assay 1: Cerebellar granule neurones prepared from postnatal day 8 Sprague Dawley rat pups were used for experiments on death induced by inhibition of PI 3-kinase. General culture methods are described in S. D. Skaper et al. in Methods in Neurosciences, Vol. 2 (Conn P. M., ed), pp. 17-33. Academic Press, San Diego, 1990. At 8-9 days in vitro (DIV), granule neurone cultures were shifted to phenol red-free Dulbecco's modified Eagle's medium lacking serum, and containing 0.05% bovine serum albumin and 25 mM KCl. Death was induced by addition of the PI 3-kinase inhibitor LY 294002 (75 μM). CRF or CRF agonist peptides (urotensin 1, urocortin, sauvagine) were added at different concentrations (from 0.3nM to 300 nM or 1000 nM) together with LY 294002. Forty-eight hours later neuronal survival was quantified by a colorimetric reaction MTT. Absolute MTT values obtained were normalised for small differences in interexperiment plating densities by scaling to the mean of sham-treated sister cultures (defined as 100%).
Results are shown in Table 1 below and in graphical form in FIG. 1, which show the percentage mean neuronal survival (and standard deviation), when in the presence of the relevant CRF receptor agonists and LY 294002, as a function of agonist concentration. […] Urotensin 1, urocortin and sauvagine were also neuroprotective albeit with lower potency (<1 μM).

Test [2] relates to spontaneous hypertensive rats (SHR). The experiment in a line: Distal middle cerebral artery occlusion (MCAO), icv dosing (FIG. 7). As to conditions: 10 μg/rat icv, 15 min and 2 hours post MCAO; 24 h permanent MCAO. Type of test: in vivo. Here is the method: The animal protocols are as follows.
Focal ischemia experiments were performed on male spontaneously hypertensive rats (SHR; Taconic Farms, Germantown, N.Y., US) weight range 280-340 g. Body temperature was maintained at 37° C. during all surgical procedures and during recovery from anesthesia (i.e., until normal locomotor activity returned). Animals were anesthetized with pentobarbital (65 mg/kg, i.p.) and underwent permanent, right middle cerebral artery occlusion (MCAO) for 24 h as described previously (F. C. Barone et al., Neuroscience & Biobehavioral Reviews, 16 (1992) 219-33, and F. C. Barone et al., Stroke, 29 (1998) 1937-50). Body temperature was monitored throughout the surgical procedure by a rectal thermometer, and the animals maintained normothermic (37±0.5° C.) via a heating blanket controlled by the thermometer. A needle temperature probe was also inserted into the left temporalis muscle to give an indirect measurement of brain temperature. Actual core and temporalis temperature values were recorded at the time of MCA occlusion. […]
The rats were allowed to recover from surgery on a heating pad while containing to be under the influence of the pentobarbital anesthesia. Once animals were able to right themselves and begin spontaneous movement, they were placed in cages on the heating pads and monitored for any distress until fully recovered from anesthesia. […]

Test [3] concerns cerebellar granule neurones. As to the kind of experiment: Assay 3: intracellular cyclic AMP enzyme immunoassay. The format is cell-based, rat. The settings on record: agonist 0 to 30 nM, 15 min, 0.5 mM IBMX. Here is the method:
Assay 3: The production of cAMP by the CRF receptor agonist peptides CRF, urotensin 1, urocortin and sauvagine was measured as follows. This assay can be used analogously for any putative CRF receptor agonists including non-peptide agonists.
Intracellular cyclic AMP was measured with a cAMP 2-site enzyme immunoassay system (trade mark BIOTRAK, commercially available from Amersham Pharmacia Biotech, PO Box 164, Rainham, Essex RM13 8JZ, United Kingdom, Amersham catalogue number RPN225), based upon the use of a sensitive and highly specific capture antibody for cyclic AMP:
Cerebellar granule neurones were seeded in polylysine-coated […] plates, 3.5×10^5 cells per 48-well, in Basal medium Eagle's containing 10% fetal calf serum, 25 mM KCl, and antibiotics. At 8-9 days in vitro, granule neurone cultures were shifted to serum-free plating medium (0.4 ml) with 0.5 mM IBMX (to inhibit the breakdown of cyclic AMP) for 15 min (37° C.). Wells then received 0.1 ml of test peptide (5× final concentration). Generally 1 μM is the preferable final concentration for a putative CRF agonist under test, though different (e.g. lower) concentrations can be used as shown for the peptide agonists in FIG. 3. Incubation was continued for 15 min. Test medium was removed and the plate placed on dry ice, and stored at −140° C. Cyclic AMP analysis was performed the following day.
Cells were then lysed with the reagent provided with the BIOTRAK kit. Intracellular content of cyclic AMP in the lysates was assayed following the manufacturer's instructions. A standard curve was constructed using the cyclic AMP calibration provided, with the quantity of bound cyclic AMP being inversely proportional to the amount of second (chromogenic) antibody bound to the reaction wells. The colour product was read with an ELISA plate reader, and was a function of the amount of cyclic AMP in the unknown sample.

In brackets after ≈: the same amount, converted by molar mass. Read-outs that look alike come from different tables or passages of the source.

The source of these data is patent publication US20080113908A1, “Use of CRF receptor agonists for the treatment or Prophylaxis of diseases, for example Neurodegenerative diseases” (SmithKline Beecham plc, priority 2000, published 2008).

On to `O=c1cc(N2CCOCC2)oc2c(-c3ccccc3)cccc12` [LY 294002, 2-(4-morpholinyl)-8-phenyl-4H-1-benzopyran-4-one], for which, on PI 3-kinase, the IC50 was 1.4 µM and the “IC50 PI 3-kinase activity” value is 0.43 mg/L (≈ 1.4 µM). The “phospho-GSK-3β level compared to control CN” value with GSK-3β was “a decrease compared to control”.
Regarding “NDDPPISIDLTFHLLRNMIEMARIENEREQAGLNRKYLDEV [Urotensin 1, Urotensin 1 (teleost fish, Sigma cat. no. U-7253), CRF receptor agonist peptide]”, the Mean survival % is reported as 42% in test [1] (agonist 0.3 nM with LY 294002 75 μM); 52.89% in test [1] (agonist 1 nM with LY 294002 75 μM); 68% in test [1] (agonist 3 nM with LY 294002 75 μM); 74.44% in test [1] (agonist 10 nM with LY 294002 75 μM); 71.67% in test [1] (agonist 30 nM with LY 294002 75 μM); 71.17% in test [1] (agonist 100 nM with LY 294002 75 μM). For the same compound, the figures for the Mean survival % in test [1] (agonist 300 nM with LY 294002 75 μM) and in test [1] (agonist 1000 nM with LY 294002 75 μM) were 73.83% and 79.17%, respectively. For the same compound, in test [2], the infarct size is 70-80 mm^3. Also, the “numerical score for neurological deficits” value in test [2] amounted to 9. In test [3], the “cAMP synthesis induced by agonist (FIG. 3)” value was “cAMP production increased with agonist concentration”.
